Legend:
[1] = test system: glycerol-3-phosphate dehydrogenase (G3PDH); assay: G3PDH activity (lipogenesis) in 3T3 F442A preadipocytes treated with media conditioned by treated mature adipocytes; assay type: cell-based, mouse; details: 8 days, control 0.0016
Source text: Thus, the mature adipocytes are firstly treated with PB+PS Secondly, the culture medium which is conditioned with these adipocytes is placed in contact with preadipocytes the maturation of which into adipocytes will be followed. A key enzyme in the process of synthesis of triglycerides is glycerol-3-phosphate dehydrogenase (G3PDH): its specific activity increases considerably during maturation and can thus be used as a precise and sensitive measurement of adipocyte conversion (Pairault J., Green H., Proc. Nat. Acad. Sci. USA, (1979) 76, 5138-42; Koekemoer T. C. et al, Int. J. Biochem. Cell Biol. (1995) 27, 625-32). […] Since G3PDH is a hydrosoluble enzyme, its activity is measured in the supernatant of the cell grindings, in the presence of appropriate substrates (NADH, TEA (triethanolamine)-EDTA, 50 mM, 1 mM). The specific activity is calculated from these determinations. […] Then, the percentage inhibition is calculated of the inhibition of the activity of the G3PDH produced by the substances compared to the controls. […] The consumption of NADH as a function of time is measured by spectrophotometry (KONTRON) at 340 nm. An absorbance variation/minute (Δ Abs/minute) can thus be calculated which corresponds to the initial rate of the enzymatic reaction. […] The total protein content is evaluated by the BCA method (Protein Assay Reagent-PIERCE LTD)

[2] = test system: human adipocytes; assay: Release of non-esterified fatty acids by human adipocytes in culture; assay type: cell-based; details: dose of 6 ng/mL
Source text: (§1) Human adipocytes originating from a plasty of a person, which are marketed by ZEN-BIO (USA), were used at an advanced stage of the adipocyte maturation. The reception of these cells in culture took place 16 days after sowing. They are cultivated in a specific medium ensuring their differentiation throughout the whole treatment. • D-16: sowing • D0: start of the treatment with the extract of Coleus (PB) and/or phytosphingosine (PS) • D6 to D18: determination of the various parameters. The properties of Coleus described above for the 3T3F442A murine adipocytes were first of all verified on these human cells: lipolytic activity by measurement of the release of glycerol and non-esterified fatty acids.

[3] = test system: 3T3-F442A adipocytes; assay: Leptin secretion by murine 3T3-F442A adipocytes in culture (ELISA on supernatants); assay type: cell-based, mouse; details: for increase in the secretion of leptin / stimulation of the leptin secretion: D21, versus control; for leptin (pg/mL) Average in culture supernatants: mature 3T3-F442A adipocytes, control 1510
Experimental: The principle of the test is to control the secretion of leptin by the adipocytes.
Culture of 3T3 F442A Cells
The 3T3 F442A preadipocytes are shown at D0 in 35 mm Petri dishes (Corning) and placed in an oven at 37° C. under an air-CO2 atmosphere (95-5). The cells are cultivated in an Eagle minimum essential medium modified according to Dulbecco (glucose 4.50 g/l) (DMEM-GIBCO BRL) supplemented with 5% of calf serum (CS) (BIOMEDIA®) and 5% of foetal calf serum (GIBCO) during the growth phase. The medium is changed at D2 and D4.
At the cell confluence (at D7), the medium is changed:
The basic medium remains the same (DMEM) but is supplemented with 10% of foetal calf serum (FCS) and insulin (5 μg/mL) (SIGMA).
The medium is then changed at D9 and D11.
At D14, D16 and D18, a treatment is made with the composition the effectiveness of which on the leptin synthesis it is sought to verify.
The leptin secreted is determined by means of a sandwich-type Elisa technique re-running with a Quantikine M Mouse Leptin Immunoassay kit.
This ELISA determination uses recombined mouse leptin, expressed in E. coli and antibodies directed against recombinant mouse leptin.
The test uses a “sandwich” immunoenzymatic technique. The microplate wells are lined with a mouse leptin polyclonal antibody.
The standards, controls and samples are deposited in the wells and, at the same moment, all the leptin present binds to the immobilised antibody.
The bound leptin is then detected by a mouse anti-leptin antibody which is coupled to an enzyme peroxidase. A substrate solution is then added into the wells. The enzymatic reaction leads to a blue solution which turns yellow after addition of a quenching solution.
The intensity of the colour measured is proportional to the amount of leptin present. The reading of the optical density is done at 450 nm on the spectrophotometer.
The determination is obtained afterwards of the dose-response curves in relation to the measurement of natural leptin, parallel to the standard curves obtained with “recombinant” Quantikine M standards. The Quantikine M kit thus enables the relative mass values for the natural mouse leptin to be determined.
The optical density measured at 450 nm is proportional to the amount of antibody fixed, which is itself proportional to the amount of leptin present initially. The results are expressed in pg/mL of leptin present in the cell supernatants.
The samples were tested in triplicate.
Three compositions containing 0.25, 1 and 2 μg/mL, respectively, of phytosphingosine or of its hydrochloride, were tested.

[4] = test system: human adipocytes; assay: Leptin secretion by human adipocytes in culture; assay type: cell-based; details: most effective doses lower than for murine adipocytes
Source text: as §1, with “parameters.” for “parameters. The properties of Coleus described above for the 3T3F442A murine adipocytes were first of all verified on these human cells: lipolytic activity by measurement of the release of glycerol and non-esterified fatty acids.”

[5] = test system: human adipocytes; assay: Release of glycerol by human adipocytes in culture (lipolysis); assay type: cell-based; details: for glycerol (pg/mL) release: 25 μg/mL
Source text: Human adipocytes originating from a plasty of a person, which are marketed by ZEN-BIO (USA), were used at an advanced stage of the adipocyte maturation. The reception of these cells in culture took place 16 days after sowing. […] The properties of Coleus described above for the 3T3F442A murine adipocytes were first of all verified on these human cells: lipolytic activity by measurement of the release of glycerol and non-esterified fatty acids.

[6] = 0.25 μg/mL, day D21 (7 days of treatment)

**Q.** Which results are given for `CCCCCCCCCCCCCCC(O)C(O)[C@@H](N)CO` (stereo in doubt) [phytosphingosine, (2S,3S,4R)-2-amino-1,3,4-octadecanetriol]?
**A.** O.D. (nmoles NAD+) average ([1]; PB 0, PS 0.5 μg/mL): 0.0014 nmoles NAD+; O.D. (nmoles NAD+) average ([1]; PB 0, PS 1 μg/mL): 0.00165 nmoles NAD+; release of non-esterified fatty acids [2]: without concomitant release of non-esterified fatty acids; increase in the secretion of leptin ([3]; 0.25 μg/mL): more than 18%; leptin (pg/mL) Average in culture supernatants [3, 6]: 1789 pg/mL; leptin (pg/mL) Average in culture supernatants ([3]; 1 μg/mL, day D21): 1563.6 pg/mL; leptin (pg/mL) Average in culture supernatants ([3]; 2 μg/mL, day D21): 1428.8 pg/mL; leptin secretion in human adipocytes [4]: induces an increase of leptin secretion; glycerol (pg/mL) release ([5]; day 3, control 73.78): 174.4 pg/mL; glycerol (pg/mL) release ([5]; day 6, control 120.8): 196.2 pg/mL; glycerol (pg/mL) release ([5]; day 9, control 147.2): 302.9 pg/mL; glycerol (pg/mL) release ([5]; day 12, control 198.4): 416.4 pg/mL; glycerol (pg/mL) release ([5]; day 15, control 196.3): 460.6 pg/mL; glycerol (pg/mL) release ([5]; day 18, control 230.9): 659.8 pg/mL; glycerol (pg/mL) release ([5]; day 21, control 276.6): 777.1 pg/mL; glycerol (pg/mL) release ([5]; day 23, control 238.9): 687 pg/mL; release of glycerol ([5]; dose of 6 ng/mL): responsible for a release of glycerol with time

**Q.** For `CCCCCCCCCCCCCC[C@@H](O)[C@@H](O)[C@@H](N)CO.Cl` [Phytosphingosine hydrochloride], which “increase in the secretion of leptin” value ([3]; 0.25 μg/mL) is on record?
**A.** Its value is “+18%”.

**Q.** What about the “leptin (pg/mL) Average in culture supernatants” value (“leptin (pg/mL) Average” for short) [3, 6] of the same molecule?
**A.** The value was 1789 pg/mL.

**Q.** And the “stimulation of the leptin secretion” value ([3]; 1 μg/mL)?
**A.** The value was “+52%”.

**Q.** What about the “leptin (pg/mL) Average” value ([3]; 1 μg/mL, day D21) of the same molecule?
**A.** Its value is 2301.3 pg/mL.

**Q.** And the “stimulation of the leptin secretion” value ([3]; 2 μg/mL)?
**A.** The value was “+26%”.

**Q.** And the “leptin (pg/mL) Average” value ([3]; 2 μg/mL, day D21)?
**A.** The value was 1907.9 pg/mL.

From patent publication US8513310B2, “Cosmetic use of phytosphingosine as slimming agent and cosmetic compositions comprising phytosphingosine” (LVMH Recherche, priority 2002, dated 2013)
